Patent US5883091A, “1,3,4-oxadiazine derivatives having a pesticide effect” (priority 1994, dated 1999)

test system: not listed separately; assay: log p (pH 2), physical constants; format: physicochemical; details: not given

Row | Compound | logD
1 | Clc1ccc(C2=NN(Cc3ccc(Oc4ccccc4)cc3)CCO2)c(Cl)c1 [Example 18] | 5.61
2 | FC(F)(F)c1ccc(Oc2ccc(CN3CCOC(c4cc(Cl)ccc4Cl)=N3)cc2)c(Cl)c1 [Example 19] | 6.35
3 | Brc1ccc(CN2CCOC(c3cccs3)=N2)cc1 [Example 20] | 4.26
4 | Fc1cccc(F)c1C1=NN(Cc2cc(Cl)c(OCc3ccc(Cl)cc3)c(Cl)c2)CCO1 [Example 21] | 5.67
5 | Fc1cccc(F)c1C1=NN(Cc2ccc(Br)cc2)CCO1 [Example 22] | 4.03
6 | FC(F)(F)Oc1ccc(-c2ccc(CN3CCOC(c4cccs4)=N3)cc2)cc1 [Example 23] | 5.41
7 | Clc1ccc(COc2c(Cl)cc(CN3CCOC(c4cccs4)=N3)cc2Cl)cc1 [Example 24] | 5.95
8 | Clc1ccc(Cl)c(C2=NN(Cc3cccc(Oc4ccccc4)c3)CCO2)c1 [Example 25] | 5.57
9 | FC(F)(F)c1ccc(C2=NN(Cc3ccc(Oc4ccc(C(F)(F)F)cc4Cl)cc3)CCO2)cc1 [Example 26] | 6.44
10 | Fc1ccc(CN2CCOC(c3ccc(Cl)c(Cl)c3)=N2)cc1Oc1ccccc1 [Example 27] | 6.13
11 | Fc1cccc(F)c1C1=NN(Cc2ccc(-c3ccc(OC(F)(F)F)cc3)cc2)CCO1 [Example 29] | 5.15
12 | Fc1cccc(F)c1C1=NN(Cc2ccc(-c3ccccc3)cc2)CCO1 [Example 30] | 4.49
13 | FC(F)(F)c1cccc(C2=NN(Cc3ccc(Oc4ccc(C(F)(F)F)cc4Cl)cc3)CCO2)c1 [Example 31] | 6.43
14 | Fc1ccc(C2=NN(Cc3ccc(Br)cc3)CCO2)cc1 [Example 32] | 4.73
15 | Fc1ccc(CN2CCOC(c3cc(Cl)ccc3Cl)=N2)cc1Oc1ccccc1 [Example 33] | 5.41
16 | Clc1cc(Cl)cc(C2=NN(Cc3ccc(Br)cc3)CCO2)c1 [Example 34] | 6.47
17 | Fc1cccc(C2=NN(Cc3ccc(Br)cc3)CCO2)c1 [Example 35] | 4.8
18 | Fc1cccc(C2=NN(Cc3ccc(-c4ccc(OC(F)(F)F)cc4)cc3)CCO2)c1 [Example 36] | 5.87
19 | FC(F)(F)Oc1ccc(-c2ccc(CN3CCOC(c4cc(Cl)cc(Cl)c4)=N3)cc2)cc1 [Example 37] | 7.36
20 | Fc1cccc(F)c1C1=NN(Cc2ccccc2)CCO1 [Example 38] | 3.38

test system: two-spotted spider mite (Tetranychus urticae); assay: Tetranychus-Test (OP resistant/spray treatment); format: in vivo; details: Tetranychus urticae, 120 h; after 5 days; active compound concentration 0.001%; OP resistant; spray treatment of infested bean plants; 100% = all spider mites destroyed, 0% = none destroyed; read-out: destruction of spider mites (action in %)
Procedure: Tetranychus-Test (OP resistant/spray treatment)
Solvent: 3 parts by weight of dimethylformamide
Emulsifier: 1 part by weight of alkylaryl polyglycol ether
To prepare a suitable preparation of active compound, 1 part by weight of active compound is mixed with the stated amount of solvent and the stated amount of emulsifier, and the concentrate is diluted with water to the desired concentrations.
Bean plants (Phaseolus vulgaris) which are severely infested with all stages of the two-spotted spider mite (Teiranychus urticae) are sprayed with a preparation of active compound of the desired concentration.
After the desired time, the action is determined in %. 100% means that all spider mites have been destroyed; 0% means that no spider mites have been destroyed.

Row | Compound | mortality at 0.001 %
21 | Fc1cccc(F)c1C1=NN(c2ccc(-c3ccc(OC(F)(F)F)cc3)cc2)CCO1 [Example 3, 4-[4-(4-trifluoromethoxyphenyl)phenyl]-2-(2,6-difluorophenyl)-4H-5,6-dihydro-1,3,4-oxadiazine] | 95%
22 | CC(C)(C)c1ccc(CN2CCOC(c3c(F)cccc3F)=N2)cc1 [Example 4, 2-(2,6-difluorophenyl)-4-(4-tert-butylbenzyl)-4H-5,6-dihydro-1,3,4-oxadiazine] | 98%

same assay, conditions: after 5 days; active compound concentration 0.001%; OP resistant; spray treatment of infested bean plants; 100% = all spider mites destroyed, 0% = none destroyed

Row | Compound | destruction of spider mites (action in %)
23 | FCCN1CCOC(c2ccc(Br)cc2)=N1 [A, 2-(4-Bromophenyl)-4-(2-fluoroeth-1-yl)-4H-5,6-dihydro-1,3,4-oxadiazine, reference compound] | no action
